Assay [1] relates to Leishmania tarentolae promastigotes (LtP). The experiment in a line: Resazurin viability assay for LtP. It is filed as cell-based. The following applies: for IC50: Leishmania tarentolae, read-out: LtP IC50; for Selectivity IC50,J774/IC50,LtP: ratio of IC50 in J774 macrophages to IC50 in LtP; for IC50,non-EP/IC50,EP: ratio of IC50 of non-EP in LtP versus IC50 of respective EP. As for the experimental part: (§1) The influence of AcEP and their analogs (Ac) on the viability of cells was tested in Leishmania tarentolae promastigotes (LtP) and J774 macrophages (Table 2). Based on the changes of viability of the respective cell lines at different compound concentrations, IC50 values were calculated. In Table 2, the IC50 values in both cell lines were compared for the individual compounds. From the ratio of IC50 values in J774 macrophages to IC50 values in LtP, an in vitro selectivity was calculated.
LtP (strain P10 from Jena Bioscience, Jena, Germany) were cultivated according to manufacturer instructions up to passage 50 in brain heart infusion medium (37 g/L, pH 7.4) and supplemented with 5 mg/L hemin and 25,000 IU/L penicillin and 25 mg/L streptomycin in 50 mL TubeSpin bioreactors (TPP, Trasadingen. Switzerland). LtP were grown at 27 °C in an incubator (Ehret, Emmendingen, Germany) and agitated at a frequency of 0.05 s^−1. […] For experiments, LtP were used one day after passage. The cell number was calculated by measuring the optical density (OD) of the culture at 600 nm with a U-1100 photometer (Hitachi Ltd., Tokyo, Japan) and applying the formula × 10^6 cells/mL = OD600nm × 0.969 × 124 × dilution factor [53].
Assay medium of YEM (20.7 g/L yeast extract powder, 1.2 g/L K2HPO4, 0.2 g/L KH2PO4, 2.9 g/L glucose, pH 7.4) and PBS (1:1, v/v), 25,000 U/L penicillin, 25 mg/L streptomycin, and 7.7 µM hemin was prepared. Aliquots of 200 µL of this medium and 2 × 10^6 LtP/mL (where required) were distributed in non-treated cell culture 96-well plates. Compounds (dissolved in DMSO) were added with starting concentrations of 25 µM (Pen) or 200 µM (AcEP/Ac), and then, serial dilutions were carried out resulting in a set of concentrations (25, 5, 1, 0.2, 0.04, and 0.008 µM) or (200, 40, 8, 1.6, 0.32, and 0.064 µM). For each compound concentration, at least triplicates on each plate were performed. After incubation of the plates at 27 °C for 48 h, 50 µL of resazurin solution (final concentration in wells 20 µM) was added to each well and after 4 h of incubation, the fluorescence was measured at 560 nm excitation and 590 nm emission using a plate reader (Perkin Elmer EnSpire, Rodgau, Germany) (adapted from). Combination assays for viability in the presence of PIH and NAC were performed the same way. […] All tests were repeated at least on four different weeks of cultivation.
(§2) Calculations were carried out using Microsoft Excel 2016 (Microsoft). The graphs were created using Origin 6.1 (OriginLab Corporation, Northampton, MA, USA). For all groups of experimental data, mean and standard deviation (SD) were calculated. Statistically significant differences between groups of sample data were identified by unpaired two-tailed Student’s t-test. Differences on the level of p < 0.05 were considered significant. The number of replicates is indicated at the respective figures/tables. The half-maximal inhibitory concentrations (IC50) were determined from non-linear concentration-response curves using a four-parameter logistic model and expressed as the mean ± SD.
A general note: Resazurin is reduced to fluorescent resorufin, in cell work by metabolically active cells.

In another assay the test system is J774 macrophages. In words: Resazurin viability assay for J774 macrophages. Format: cell-based, murine. Particulars: Mus musculus, J774, 48 h, read-out: J774 IC50. As for the experimental part: as §1
The murine macrophage cell line J774A.1 (ATCC, TIB-67™, Wesel, Germany) was cultivated up to passage 30 in DMEM (high glucose, 3.7 g/L NaHCO3, pH 7.4) with 25,000 IU/L penicillin, 25 mg/L streptomycin, and 10% FCS (heat-inactivated) in 50 mL TubeSpin bioreactors. J774 cells were incubated at 37 °C and 5% CO2 on a roller culture apparatus (5 rpm) in a Heraeus Cytoperm 8080 incubator (Thermo Electron Corp., Vienna, Austria). To determine the cell count, the cell suspension was re-suspended and diluted 1:2 with phosphate-buffered saline (PBS): 137 mM NaCl, 1.4 mM KH2PO4, 4.3 mM Na2HPO4, and 2.7 mM KCl, pH 7.4. After fixation of the cells by mixing the cell suspension 1:1 with a formaldehyde solution (2%, v/v), aliquots of the resulting suspension were transferred into a standard Neubauer chamber (VWR, Austria) and counted manually using a light microscope (Motic BA310, Vienna, Austria) at a magnification of 40 times. J774 cells were passaged twice a week in a ratio of 1:10.
DMEM containing 25,000 U/L penicillin, 25 mg/L streptomycin, 10% FCS, and 1 × 10^5 J774/mL was prepared. This mixture (200 µL) was distributed in cell culture-treated 96-well plates, except the control wells which contained only DMEM. The cells were incubated for 24 h at 37 °C and 5% CO2 to allow attachment. Afterwards the medium and non-adherent cells were removed by washing with PBS, and then, 200 µL DMEM was added to attached cells. Compounds dissolved in DMSO were added in starting concentrations of 25 µM (Pen) or 200 µM (AcEP/Ac), and then, serial dilutions were carried out resulting in the same concentration steps as listed for LtP. For each compound concentration triplicates on each plate were performed. […], 50 µL of resazurin solution (final concentration 20 µM) was added, and after 4 h of incubation, the fluorescence was measured at 560 nm excitation and 590 nm emission using a plate reader (Perkin Elmer EnSpire, Rodgau, Germany). All tests were repeated at least on four different weeks of cultivation.
as §2

Setting [2] is: resazurin viability, endpoint 48 h, 2 × 10^6 LtP/mL, mean ± SD of 4–8 experiments.
Where [3] appears, read: resazurin viability, endpoint 48 h, 10^5 J774 cells/mL, mean ± SD of 4–8 experiments.

Molecules are shown by their SMILES. Where two headings read alike, the source gives them in different places.

One may read the IC50 as the concentration needed to halve the response being measured. As for `c1ccc(C23OOC(c4ccccc4)(c4ccccc42)c2ccccc23)cc1` [DPAcEP], the concentration for half-maximal inhibition (IC50) in assay [1] (setting [2]) was found to be 9.67 ± 2.15 µM. For the same molecule, in assay [1], the “Selectivity IC50,J774/IC50,LtP” value amounted to 20 and the “IC50,non-EP/IC50,EP” value was 20.3. The “Activity against LtP, in words” value in assay [1] (viability assay) is recorded as “rather active”. Moreover, the half-maximal inhibitory concentration (IC50) in the assay on J774 macrophages (setting [3]) worked out at 197 ± 35 µM.
Consider `CC(C)(C)c1ccc2c(c1)C1(c3cccnc3)OOC2(c2cccnc2)c2ccccc21` (centres unmarked) [mPyBuAcEP], for which the values for the half-inhibitory concentration (IC50) (in assay [1] (setting [2]); in the assay with J774 macrophages (setting [3])) were 0.7 ± 0.31 µM and 24.6 ± 7.3 µM, respectively. Further, in assay [1], the “Selectivity IC50,J774/IC50,LtP” value came out at 35. Also, in assay [1], the “IC50,non-EP/IC50,EP” value stood at 0.77.
On to `CC(C)(C)c1ccc2c(-c3cccnc3)c3ccccc3c(-c3cccnc3)c2c1` [mPyBuAc], for which the 50% inhibitory concentration (IC50) in assay [1] (48 h) worked out at 0.54 ± 0.09 µM; in the assay with J774 macrophages it was 74.2 ± 45.9 µM. Besides, the “Selectivity IC50,J774/IC50,LtP” value in assay [1] came to 139.
For the molecule `c1ccc(C23OOC(c4ccccn4)(c4ccccc42)c2ccccc23)nc1` [oPyAcEP], the IC50 in assay [1] (setting [2]) amounted to 1.84 ± 0.13 µM. In addition, in assay [1], the “Selectivity IC50,J774/IC50,LtP” value was 1.2 and the “IC50,non-EP/IC50,EP” value is 18.7. Besides, the IC50 with J774 macrophages (setting [3]) turned out to be 2.24 ± 0.08 µM.
Turning to `C[n+]1ccc(C23OOC(c4cc[n+](C)cc4)(c4ccccc42)c2ccccc23)cc1` [Compound 1062MeAcEP], the IC50 in assay [1] (setting [2]) was 62 ± 34.2 µM; in the assay with J774 macrophages (setting [3]), over 200 µM. Also, the “Selectivity IC50,J774/IC50,LtP” value in assay [1] is reported as over 3.2.
Turning to `COc1ccccc1C12OOC(c3ccccc3OC)(c3ccccc31)c1ccccc12` [oOMeAcEP], the IC50 in assay [1] (setting [2]) is 40.7 ± 12.3 µM; with J774 macrophages (setting [3]) it was over 200 µM. In assay [1], the “Selectivity IC50,J774/IC50,LtP” value is reported as over 4.9. For the same molecule, the “IC50,non-EP/IC50,EP” value in assay [1] came out at 1.79.

Source of the values: publication PMC9612231, “Antileishmanial Anthracene Endoperoxides: Efficacy In Vitro, Mechanisms and Structure-Activity Relationships” (Molecules, 2022).
